In patent US8426447B2, “Spiro-tricyclic ring compounds as beta-secretase modulators and methods of use” (Amgen Inc., priority 2008, dated 2013):

How the values were obtained:
[1] = target: T1, BACE1 (Homo sapiens, UniProt P56817); experiment: In Vitro Enzymatic BACE FRET (Fluorescence Resonance Energy Transfer) Assay; type: biochemical; conditions: read-out: BACE1 FRET assay
Procedure, shortened: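 Buffer 0.05 M acetate pH 4.2 with 10% DMSO final and 100 uM genapol; reaction started with 50 nM FRET peptide substrate (fluorophore/quencher flanking BACE cleavage site), incubated one hour. Stopped with Tris buffer raising pH to neutrality, then fluorescence read.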

[2] = target: T1, BACE1; experiment: In Vitro BACE Cell-based Assay (HEK cell assay): Aβ40 in conditioned medium of cells stably expressing Amyloid Precursor Protein, sandwich ELISA; conditions: read-out: HEK cell assay
Procedure, shortened: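 First, APP-stable cells grow 24 h at 37° C., 5% CO2. Next, test compounds are added for 24 h (10 doses, 0.1% DMSO). Finally, medium Aβ40 is determined by pAb40/6E10 sandwich ELISA with Europium TRF, and IC50 is calculated.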

[3] = in vitro BACE FRET enzyme assay, IC50 class symbols
[4] = HEK cell-based assay, Aβ40 in conditioned medium, IC50 class symbols

T1 sequence (P56817 46-501, species assumed): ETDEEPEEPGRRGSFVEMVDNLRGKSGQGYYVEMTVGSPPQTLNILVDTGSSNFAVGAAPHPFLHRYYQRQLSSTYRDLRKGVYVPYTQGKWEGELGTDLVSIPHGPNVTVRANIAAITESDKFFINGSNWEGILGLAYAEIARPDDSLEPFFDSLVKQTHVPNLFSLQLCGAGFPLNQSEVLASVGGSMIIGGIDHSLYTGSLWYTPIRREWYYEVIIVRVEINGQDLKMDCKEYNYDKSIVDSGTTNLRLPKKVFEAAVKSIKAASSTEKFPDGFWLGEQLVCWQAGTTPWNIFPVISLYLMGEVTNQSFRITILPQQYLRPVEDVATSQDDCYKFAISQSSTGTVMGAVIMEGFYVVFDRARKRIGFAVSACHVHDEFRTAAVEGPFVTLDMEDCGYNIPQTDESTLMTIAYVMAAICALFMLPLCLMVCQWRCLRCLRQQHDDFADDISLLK

| Structure (SMILES) | IC50 [1] | IC50 ([1]; Table IV, class symbols) | IC50 ([2]; Table IV, class symbols) | further results |
| --- | --- | --- | --- | --- |
| CC(C)(C)/C=C/c1cnc2c(c1)[C@]1(COC(N)=N1)c1cc(-c3cncnc3)ccc1O2 [compound 379] |  |  |  | IC50 [1, 3]: < 0.1 µM; IC50 [2, 4]: < 0.1 µM |
| CC(C)(C)COc1ccc2c(c1)[C@@]1(COC(N)=N1)c1ccccc1O2 [compound 665] | 0.1 to 1 µM |  |  | IC50 [2]: 1 to 5 µM |
| NC1=N[C@@]2(CO1)c1cc(-c3cncnc3)ccc1Oc1cccnc12 [compound 525] | > 5 µM |  |  | IC50 ([2]; HEK cells): > 5 µM |
| COc1ccc2c(c1)C1(COC(N)=N1)c1cc(-c3cccc(C)c3)ccc1O2 (centres unmarked) [Example 20, 2′-methoxy-7′-(3-methylphenyl)spiro[1,3-oxazole-4,9′-xanthen]-2-amine] |  |  |  | IC50 ([1]; Table 1): 1 to 5 µM; IC50 ([2]; Table 1, Aβ40, 24 h incubation): > 5 µM |
| CC(C)Cc1cc2c3c(ccc2o1)Oc1ncc(-c2cncnc2)cc1[C@]31COC(N)=N1 [compound 792] |  | 0.1 to 1 µM | 1 to 5 µM |  |
| NC1=N[C@@]2(CO1)c1cc(-c3cncnc3)ccc1Oc1ccc(-c3cccc(OC(F)(F)F)c3)cc12 [compound 839] |  | < 0.1 µM | 1 to 5 µM |  |
| NC1=N[C@@]2(CO1)c1cc(C#CC3CC3)ccc1Oc1ccc(Oc3ccccn3)cc12 [compound 211] |  |  |  | IC50 ([1]; Table III, IC50's in uM ranges): 0.1 to 1 µM; IC50 ([2]; Table III, IC50's in uM ranges): 1 to 5 µM |
| COc1ccncc1-c1ccc2c(c1)[C@@]1(COC(N)=N1)c1cc(OCC(C)(C)C)ccc1O2 [compound 217] |  |  |  | IC50 ([1]; Table III, IC50's in uM ranges): 0.1 to 1 µM; IC50 ([2]; Table III, IC50's in uM ranges): 1 to 5 µM |
| NC1=N[C@]2(CO1)c1cc(-c3cccnc3)ccc1Oc1ncc(Br)cc12 [compound 174] |  |  |  | IC50 ([1]; Table III, IC50's in uM ranges): < 0.1 µM; IC50 ([2]; Table III, IC50's in uM ranges): 0.1 to 1 µM |
| CC(C)NC(=O)c1ccc2c(c1)[C@@]1(COC(N)=N1)c1cc(OCC(C)(C)C)ccc1O2 [compound 703] | < 0.1 µM |  |  | IC50 [2]: < 0.1 µM |
| NC1=N[C@@]2(CO1)c1cc(Br)ccc1Oc1ccc(Cl)nc12 [compound 855] |  | > 5 µM | > 5 µM |  |
| NC1=N[C@]2(CO1)c1cc(-c3cccnc3)ccc1Oc1cnc(Cl)cc12 [compound 953] | 0.1 to 1 µM |  |  | IC50 [2]: 1 to 5 µM |
| NC1=N[C@@]2(CO1)c1cc(-c3ccccc3F)ccc1Oc1ncc(C3=CCOCC3)cc12 [compound 488] | < 0.1 µM |  |  | IC50 ([2]; HEK cells): < 0.1 µM |
| NC1=N[C@@]2(CO1)c1cc(-c3ccccc3)ccc1Oc1ncc(N3C[C@@H]4C[C@H]3CO4)cc12 [compound 454] | < 0.1 µM |  |  | IC50 ([2]; HEK cells): < 0.1 µM |
| N#Cc1ccc(-c2cnc3c(c2)[C@]2(COC(N)=N2)c2cc(-c4cncnc4)ccc2O3)cc1 [compound 473] | < 0.1 µM |  |  | IC50 ([2]; HEK cells): < 0.1 µM |
| COc1ccc2c(c1)[C@@]1(COC(N)=N1)c1cc(-c3ccc(OCC4CC4)nc3)cnc1O2 [compound 668] | 0.1 to 1 µM |  |  | IC50 [2]: 0.1 to 1 µM |
| NC1=N[C@]2(CO1)c1cc(-c3ccc(OC(F)(F)F)cc3)ccc1Oc1ccc(-c3cncnc3)cc12 [compound 840] |  | < 0.1 µM | 0.1 to 1 µM |  |
| NC1=N[C@]2(CO1)c1cc(Br)ccc1Oc1ccc(-c3cccnc3)cc12 [compound 960] | 0.1 to 1 µM |  |  | IC50 [2]: 1 to 5 µM |
| Cc1cncc(-c2ccc3c(c2)[C@@]2(COC(N)=N2)c2cc(C4=CCOCC4)ncc2O3)c1 [compound 326] |  |  |  | IC50 [1, 3]: < 0.1 µM; IC50 [2, 4]: < 0.1 µM |
| NC1=N[C@@]2(CO1)c1cc(-c3cncnc3)ccc1Oc1c(F)cccc12 [compound 553] |  | < 0.1 µM | 0.1 to 1 µM |  |
| NC1=N[C@]2(CO1)c1cc(-c3cccnc3)ccc1Oc1c(F)cc(C3=CCOCC3)cc12 [compound 644] |  | 0.1 to 1 µM | 1 to 5 µM |  |
| CC(C)(C#N)COc1cnc2c(c1)[C@]1(COC(N)=N1)c1cc(-c3ccccc3)ccc1O2 [compound 409] |  |  |  | IC50 [1, 3]: < 0.1 µM; IC50 [2, 4]: 0.1 to 1 µM |
| NC1=N[C@]2(CO1)c1cc(-c3cccc(F)c3)ccc1Oc1ncc(C3=CCOCC3)cc12 [compound 690] | 1 to 5 µM |  |  | IC50 [2]: > 5 µM |
| NC1=N[C@]2(CO1)c1cc(-c3ccccc3)ccc1Oc1ncccc12 [compound 598] |  | 1 to 5 µM | > 5 µM |  |
| CC(C)(C)COc1ccc2c(c1)[C@@]1(COC(N)=N1)c1cc(-c3cncs3)ccc1O2 [compound 781] | < 0.1 µM |  |  | IC50 [2]: 0.1 to 1 µM |
| NC1=N[C@@]2(CO1)c1cc(-c3cccnc3F)ccc1Oc1ccc(C3CCOCC3)nc12 [compound 338] |  |  |  | IC50 [1, 3]: < 0.1 µM; IC50 [2, 4]: < 0.1 µM |
| CC(C)(C)COc1ccc2c(c1)[C@]1(COC(N)=N1)c1cc(-c3cccnn3)ccc1O2 [compound 649] |  | < 0.1 µM | 0.1 to 1 µM |  |
| COc1ccc2c(c1)[C@]1(COC(N)=N1)c1c(ccc(-c3cncnc3)c1F)O2 [compound 814] |  | < 0.1 µM | 0.1 to 1 µM |  |
